The values that follow come from US6893830B1, “Method of screening oxysterol activation of LXRα” (The Board of Regents of the University of Texas System, priority 1996, dated 2005).

The structures appear in SMILES notation. Read-outs that look alike come from different tables or passages of the source.

For one assay, the target named is T1, LXRα (Homo sapiens, UniProt Q13133).
T1 sequence (Q13133 1-447): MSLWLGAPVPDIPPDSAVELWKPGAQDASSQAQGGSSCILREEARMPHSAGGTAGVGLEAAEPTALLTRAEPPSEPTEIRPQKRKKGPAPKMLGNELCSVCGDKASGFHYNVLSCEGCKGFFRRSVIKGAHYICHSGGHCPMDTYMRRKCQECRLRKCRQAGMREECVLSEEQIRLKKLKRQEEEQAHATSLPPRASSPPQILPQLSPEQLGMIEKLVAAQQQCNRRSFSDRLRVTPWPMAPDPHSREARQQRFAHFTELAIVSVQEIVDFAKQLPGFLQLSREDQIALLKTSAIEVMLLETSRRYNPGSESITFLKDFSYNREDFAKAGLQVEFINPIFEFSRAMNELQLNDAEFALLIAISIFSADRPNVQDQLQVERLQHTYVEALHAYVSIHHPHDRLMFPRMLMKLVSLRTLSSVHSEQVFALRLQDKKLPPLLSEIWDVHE
T1 sequence (P19793 1-462 partner): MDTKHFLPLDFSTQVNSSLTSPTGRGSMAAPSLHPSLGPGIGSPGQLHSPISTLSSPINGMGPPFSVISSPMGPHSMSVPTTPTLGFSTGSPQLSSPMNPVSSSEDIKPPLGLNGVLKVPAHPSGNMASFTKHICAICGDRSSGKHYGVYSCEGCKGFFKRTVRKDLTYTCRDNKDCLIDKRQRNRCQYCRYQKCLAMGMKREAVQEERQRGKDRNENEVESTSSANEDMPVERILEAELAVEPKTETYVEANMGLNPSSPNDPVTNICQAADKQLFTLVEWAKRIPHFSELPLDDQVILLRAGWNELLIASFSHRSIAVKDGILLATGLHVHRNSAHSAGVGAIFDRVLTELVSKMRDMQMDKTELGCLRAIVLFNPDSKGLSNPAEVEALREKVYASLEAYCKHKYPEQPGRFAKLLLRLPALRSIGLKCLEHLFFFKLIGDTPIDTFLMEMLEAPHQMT
Put plainly: LXRα cotransfection assay with TK-LXREx3-LUC reporter in CV-1 cells. Type of assay: cell-based. The arrangement: expressed in transfected cells; host or cells: CV-1 monkey kidney cells. Conditions: for LXRα activity: 10 μM, CV-1 cotransfection assay. The protocol:
FIG. 1 Human LXRα is activated by gonad sterols. (A) Transactivation of LXRα ligand binding domain (LBD) with testis extract. CV-1 cells were cotransfected with a GAL4 responsive luciferase reporter plasmid and an expression plasmid encoding no receptor or a chimeric receptor composed of the GAL4 DNA binding domain fused to the LXRα ligand binding domain (LBD) (GAL4-LXRα)^3. After transfection, cells were treated with ethanol (ETOH) or 1% of the concentrated testis extract. (B) Transactivation of LXRα with follicular fluid meiosis activating substance (FF-MAS). CV-1 cells were cotransfected with an LXRα responsive reporter plasmid and the receptor expression plasmids for LXRα alone or with RXRα. After transfection, cells were treated with ETOH or […] FF-MAS.
FIG. 2 LXRα is activated by a specific subset of oxysterols. (A) Specificity of LXRα activators. Shown is a representative group from 70 compounds evaluated for LXRα activity (10 μM) in cotransfection assays as described in FIG. 1B. […] (B) The the structure-activity relationship of LXRα activators. Data compiled from FIG. 2A and other experiments (not shown) reveal that the position of the hydroxyl on the cholesterol backbone is a determinant of LXRα activity. […] Dose response curves for LXRα activators were generated in CV-1 cell cotransfection assays as described in FIG. 1B.
Organic extraction of breeding bull testis was performed as described^6. Briefly, 12 grams of lyophilized testis was extracted with N-heptane and lipids were concentrated by roto-evaporation. Aliquots representing 1% of this material were assayed. FF-MAS was synthesized as described^18. Transient transfections in CV-1 monkey kidney cells were performed in triplicate in 48-well plates as described^3 with media containing 5% cabosil-treated calf bovine serum.
Transfections were performed in FIG. 1A using 80 ng of TK-MH100x4-LUC reporter and 30 ng of CMX-GAL4-hLXRα expression plasmids per well; and in FIG. 1B using 50 ng of TK-LXREx3-LUC reporter and 25 ng of CMX-hLXRa alone or with 25 ng CMX-hRXRa expression plasmids per well. Candidate ligands were dissolved in ethanol and added 8 hours post-transfection. As an internal standard, 50 ng of CMX-β gal was included in all transfections. All plasmid constructs and determinations of luciferase and β-galactosidase activities have been described^3. To construct CMX-LXRα, the hLXRα cDNA insert was excised from the plasmid pXR2DRV (Willy, et al., 1995, Genes Dev. 9: 1033-1045) with Kpnl and BamHI and was ligated into the expression vector CMX. CMX-βgal was constructed by ligating the β-galactosidase gene into the expression vector CMX. Chimeric Gal4-receptor expression plasmid (CMX-GAL4-LXRα) was constructed by first ligating the GAL4 portion of pSC424 (Sadowski, I. and M. Ptashne, 1989, Nucleic Acids Res. 19: 7539-7530) into the HindIII/SacI sites of pCMX (Umesono, et al., 1991, Cell 65: 1255-1266) to create pCMX-GAL4. This vector contains the CMV promoter fused to the coding sequence for GAL4 (1-147), followed by inframe polylinker cloning sites and translational stop codons. The cDNAs encoding the ligand-binding domain (LBD) of hLXRα (amino acids 166-447) was then ligated into the polylinker to create CMX-GAL4-LXRα.
Reporter plasmids for these studies were constructed by ligating the appropriate oligonucleotides into the HindIII site of the TK-LUC vector to create TK-LXREx3-LUC, TK-MH100x4-LUC (Kang, T., et al., 1993, J. Biol Chem. 268: 9629-9635). The sense strand of the LXRE oligonucleotide used to construct the reporter plasmid TK-LXREx3-LUC was 5′agctt[…]3′ (SEQ. ID. NO. 1). All constructs were verified by sequencing. Data are presented as relative light units (RLUs) and represent the mean of triplicate assays±standard error. […]

For another assay, the target named is T2, LXRα protein (Homo sapiens, UniProt Q13133).
T2 construct: made in house; host or cells: in vitro synthesis (cell-free translation)
T2 sequence (Q13133 1-447): T1 sequence (Q13133 1-447)
Put plainly: Limited protease protection assay (chymotrypsin) of [35S]-labelled Flag-LXRα. Format: binding. Particulars: increasing concentrations of chymotrypsin, SDS-PAGE and autoradiography. The protocol: FIG. 4, Protease protection of LXRα with 22(R)-hydroxycholesterol. [^35S]-labelled LXRα protein was incubated with (A) ethanol (ETOH) control or (B) 22(R)-hydroxycholesterol, subjected to protease digestion with increasing amounts of chymotrypsin, and analyzed by SDS-PAGE and autoradiography.
In vitro synthesized [^35S]-labelled Flag-LXRα protein was subjected to protease digestion with α-chymotrysin. For these studies, LXRα with a Flag epitope fused to the amino terminus was used.
The unavailability of radiolabelled LXRα activators prevents direct ligand binding analysis. To address the possibility that 22(R)-hydroxycholesterol interacts with LXRα, a limited protease protection assay was performed (FIG. 4). In this experiment, several proteolytic fragments were generated when LXRα protein was incubated with increasing concentrations of the protease, chymotrypsin. […] The presence of a specific ligand-protected ˜30 kDa fragment has also been observed during similar analyses with other nuclear receptors. Thus, these protease protection studies support the finding that 22(R)-hydroxycholesterol interacts with LXRα.

The test system of a further assay is RXR/LXR heterodimer. Put plainly: RXR/LXR heterodimer activation, dose response in CV-1 cells with TK-LXREx3-LUC. Format: cell-based, human. Conditions: LXRα expression plasmid, dose-dependent. Here is the method: TK-DR-4-LUC; human vitamin D receptor (VDR)^24, TK-DR^3-LUC; human peroxisome proliferator-activated receptor-α (PPARα)^25, TK-PPREx3-LUC; human farnesol activated receptor (FXR)^11, ΔMTV-EcREx5-LUC; human estrogen receptor (ER)^26, ΔMTV-ERE-LUC; human glucocorticoid receptor (GR)^27, MTV-LUC; Drosophila ecdysone receptor (usp/EcR)^15, ΔMTV-EcREx5-LUC. Cells were treated with ETOH or 6 μM 22(R)-hydroxycholesterol. […] FIG. 3(A)-3(D) Activation of LXRα by 22(R)-hydroxycholesterol in Drosophila (SL-2) cells. […] CV-1 cells were cotransfected with TK-LXREx3-LUC reporter plasmid and expression plasmids containing the indicated receptor combinations, and then treated with the indicated ligands. […] CV-1 cells cotransfected with the LXRα expression plasmid and TK-LXREx3-LUC reporter were treated with 9-cis RA, 22(R)-hydroxycholesterol, or both, at the indicated concentrations.
In FIG. 3B. Drosophila SL-2 cells were transfected and assayed as previously described^5 in 6-well plates with […] A5C-hLXRα or A5C-hLXRα, 0.5 mg ADH-LXREx2-LUC, 0.2 mg A5C-βGAL and […] PGEM4 carrier DNA per well.
A subset of receptors that function as RXR heterodimers have the unique ability to be activated by their own ligand, the RXR ligand (i.e., 9-cis retinoic acid), or both ligands together^11,17. […]

Setting [1] is: CV-1 cell cotransfection, dose response curves, read-out: EC50 for LXRα activators.

For `CC(C)=CCC[C@@H](C)[C@H]1CC=C2C3=C(CC[C@@]21C)[C@@]1(C)CC[C@H](O)C(C)(C)[C@@H]1CC3` [FF-MAS], the EC50 – broadly, the midpoint of the concentration-response curve – at LXRα (setting [1]) was found to be 3.5 µM. In addition, at LXRα (CV-1 cells, wild-type LXRα, TK-LXREx3-LUC, 50 mM FF-MAS vs ETOH), the “induction of transcription by LXRα” value was 5-6 fold.
As for `CC1=C(/C=C/C(C)=C\C=C\C(C)=C\C(=O)O)C(C)(C)CCC1` [9-cis retinoic acid, reference compound], the “ligand-protected 30 kDa chymotrypsin fragment of LXRα” value at LXRα protein was “not”. In addition, the maximal induction in the assay on RXR/LXR heterodimer was 7 fold.
As for `CC(C)=CCCC(C)=CCCC(C)=CCO` [farnesol, reference compound], the LXRα activity entry at LXRα was “no LXRα activity”.
Regarding `CC(C)CCC[C@@H](C)[C@H]1CC[C@H]2[C@@H]3[C@@H](O)C=C4C[C@@H](O)CC[C@]4(C)[C@H]3CC[C@]12C` [7β-hydroxycholesterol], the EC50 on LXRα (setting [1]) is 3.5 µM.
As for `CC(C)CCC[C@](C)(O)[C@H]1CC[C@H]2[C@@H]3CC=C4C[C@@H](O)CC[C@]4(C)[C@H]3CC[C@@]21C` [20(S)-hydroxycholesterol], the EC50 at LXRα (setting [1]) came out at 1.6 µM.
Same read-out and setting: the value for `C[C@H](CCCC(C)(C)O)[C@H]1CC[C@H]2[C@@H]3CC=C4C[C@@H](O)CC[C@]4(C)[C@H]3CC[C@]12C` [25-hydroxycholesterol] was 3.5 µM.
As for `CC(C)CC[C@H](O)[C@@H](C)[C@H]1CC[C@H]2[C@@H]3CC=C4C[C@@H](O)CC[C@]4(C)[C@H]3CC[C@]12C` [22(S)-hydroxycholesterol], on LXRα, the LXRα activity entry is “completely inactive”.
Regarding `CC(C)CCC[C@@H](C)[C@H]1CC[C@H]2[C@@H]3CC=C4C[C@@H](O)CC[C@]4(C)[C@H]3CC[C@]12C` [cholesterol], the “ligand-protected 30 kDa chymotrypsin fragment of LXRα” value at LXRα protein is “not”.
Molecule `CC(C)C(O)CC[C@@H](C)[C@H]1CC[C@H]2[C@@H]3CC=C4C[C@@H](O)CC[C@]4(C)[C@H]3CC[C@]12C` (some centres unmarked) [24-hydroxycholesterol] displayed an EC50 on LXRα of 1.6 µM.
